Source: BindingDB's records for patent US11447487 (Bristol-Myers Squibb Company, 2022)

Molecular target: Rho-associated protein kinase 2 (Homo sapiens, UniProt O75116)
Experiment: In Vitro Assays
Description: The effectiveness of compounds of the present invention as ROCK inhibitors can be determined in a 30 μL assay containing 20 mM HEPES, pH 7.5, 20 mM MgCl2, 0.015% Brij-35, 4 mM DTT, 5 μM ATP and 1.5 μM peptide substrate (FITC-AHA-AKRRRLSSLRA-OH) (SEQ ID No. 1). Compounds were dissolved in DMSO so that the final concentration of DMSO was <2%, and the reaction was initiated with Rho kinase variants. After incubation, the reaction was terminated by the addition of EDTA and the phosphorylated and non-phosphorylated peptides separated using a LABCHIP 3000 Reader (Caliper Life Sciences). […] Compounds were tested in dose-response format, and the inhibition of kinase activity was calculated at each concentration of compound. The inhibition data were fit using a curve-fitting program to determine the IC50; i.e., the concentration of compound required to inhibit 50% of kinase activity.

Rho-associated protein kinase 2, sequence (O75116 whole entry): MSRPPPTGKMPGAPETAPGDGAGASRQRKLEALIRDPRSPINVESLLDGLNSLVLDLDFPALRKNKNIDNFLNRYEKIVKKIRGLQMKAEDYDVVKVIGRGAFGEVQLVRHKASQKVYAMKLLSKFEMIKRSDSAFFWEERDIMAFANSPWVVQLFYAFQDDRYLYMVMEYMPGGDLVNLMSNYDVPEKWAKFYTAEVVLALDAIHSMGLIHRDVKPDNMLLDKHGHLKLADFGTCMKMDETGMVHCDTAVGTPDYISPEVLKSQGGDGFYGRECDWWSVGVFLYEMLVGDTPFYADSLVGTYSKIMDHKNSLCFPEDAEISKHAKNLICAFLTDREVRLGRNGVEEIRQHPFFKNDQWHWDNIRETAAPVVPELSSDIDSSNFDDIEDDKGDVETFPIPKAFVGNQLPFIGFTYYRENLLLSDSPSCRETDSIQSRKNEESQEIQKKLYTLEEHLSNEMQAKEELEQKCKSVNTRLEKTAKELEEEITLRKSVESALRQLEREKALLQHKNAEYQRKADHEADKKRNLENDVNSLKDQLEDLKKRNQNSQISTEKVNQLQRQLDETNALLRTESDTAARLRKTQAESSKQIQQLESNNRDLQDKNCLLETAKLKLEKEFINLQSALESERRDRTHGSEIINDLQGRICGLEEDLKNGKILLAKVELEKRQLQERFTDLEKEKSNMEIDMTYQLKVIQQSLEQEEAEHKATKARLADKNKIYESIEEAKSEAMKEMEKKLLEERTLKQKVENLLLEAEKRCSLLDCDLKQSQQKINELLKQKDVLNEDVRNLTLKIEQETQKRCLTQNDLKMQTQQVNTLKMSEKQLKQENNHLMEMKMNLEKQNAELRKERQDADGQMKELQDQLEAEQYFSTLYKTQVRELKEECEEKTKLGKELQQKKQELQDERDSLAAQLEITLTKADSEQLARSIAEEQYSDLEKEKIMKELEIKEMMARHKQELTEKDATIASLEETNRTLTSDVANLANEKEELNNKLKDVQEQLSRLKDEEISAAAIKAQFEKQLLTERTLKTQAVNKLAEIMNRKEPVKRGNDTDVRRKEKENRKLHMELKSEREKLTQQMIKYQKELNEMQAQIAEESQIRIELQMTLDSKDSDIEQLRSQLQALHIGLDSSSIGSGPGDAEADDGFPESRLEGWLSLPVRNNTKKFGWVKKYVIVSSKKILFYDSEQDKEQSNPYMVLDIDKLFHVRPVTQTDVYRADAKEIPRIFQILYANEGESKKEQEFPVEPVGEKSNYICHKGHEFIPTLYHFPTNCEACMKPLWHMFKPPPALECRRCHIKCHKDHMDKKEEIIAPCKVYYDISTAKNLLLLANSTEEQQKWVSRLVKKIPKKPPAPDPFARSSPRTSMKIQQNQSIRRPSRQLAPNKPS

SMILES | IC50 [nM]
NC(=O)c1cccnc1O[C@H]1CC2(C1)C[C@H](N1C(=O)CN(c3ccc(OC(F)(F)F)cc3)C1=O)C2 (stereo partly drawn) [US11447487, Example 86] | 6
NC(=O)c1cccnc1O[C@H]1CC2(C1)C[C@H](N1C(=O)NC(CCC3CCCCC3)C1=O)C2 (stereo partly drawn) [US11447487, Example 4] | 13
NC(=O)c1cccnc1O[C@H]1CC2(C1)C[C@H](N1C(=O)CC(Cc3ccccc3)NC1=O)C2 (stereo partly drawn) [US11447487, Example 76] | 456
